What was measured:
[1] = tested on: Fusarium oxysporum; experiment: Adjuvancy with other fungicides for other fungus, FT2; format: cell-based; conditions: Ia 4 μg/mL + pyraclostrobin 0.01 μg/mL
Experimental: (§1) To evaluate the biological spectrum of activity, lamellicolic anhydride adjuvant (Ta) was tested in combination with seven fungicides against six different fungal test organisms belonging to five different genera.
(§2) Prior to evaluating the adjuvant effect of (Ia), the minimum inhibitory concentration (MIC) for each fungicide against each test organism was determined by measuring growth on agar plates containing decreasing concentrations of fungicide.
(§3) Once the MIC was determined, adjuvant testing was performed with the concentration of (Ta) fixed at 4 μg/mL and each fungicide at a concentration which inhibited growth of the fungus by 10-20%.
(§4) Fungal targets are: FT1 —Fusarium solani, FT2 —Fusarium oxysporum, FT3 —Alternaria infectorium, FT4 —Penicillium roqueforti, FT5 —Aspergillus flavus, FT6 —Cladosporium sp.
(§5) The numbers indicate fold change improvement in fungal growth inhibition relative to the fungal test organisms treated with fungicide and adjuvant vehicle alone. A value of 1 would indicate no effect on fungicidal activity, whilst a value >1 indicates improved fungicidal activity. n.t. indicates not tested.

[2] = tested on: Aspergillus flavus; experiment: Adjuvancy with other fungicides for other fungus, FT5; format: cell-based
Experimental: as §1, §2, §3, §4, §5

[3] = tested on: Alternaria infectorium; experiment: Adjuvancy with other fungicides for other fungus, FT3; format: cell-based
Experimental: as §1, §2, §3, §4, §5

[4] = tested on: Fusarium solani; experiment: Adjuvancy with other fungicides for other fungus, FT1; format: cell-based; conditions: Ia 4 μg/mL + dimethomorph 12.8 μg/mL
Experimental: as §1, §2, §3, §4, §5

[5] = tested on: Penicillium roqueforti; experiment: Adjuvancy with other fungicides for other fungus, FT4; format: cell-based
Experimental: as §1, §2, §3, §4, §5

[6] = tested on: B. cinerea; experiment: Adjuvancy with other fungicides for B. cinerea; format: cell-based, Botrytis cinerea
Experimental: Botrytis cinerea (ATCC 90479) was cultured on potato dextrose agar (PDA) for 7 days with diurnal UV cycles (12 h UV light and 12 h dark). Spores were harvested in a buffered, sterile saline solution (0.9% saline water with 1% Tween 80) and counted using a haemocytometer. The spore suspension was adjusted to a final concentration of 8.5×10^6 spores/mL to create a standardised inoculum. To prepare hyphal fragments for adjuvant testing, 8.5×10^4 spores were used to inoculate 10 mL of potato dextrose broth in a 150×25 mm tube. The tube was incubated at 220 RPM, 22° C. for 48 hours. To create hyphal fragments from the culture, the culture was transferred to a 50 mL plastic conical tube containing approximately 20 sterile 5 mm diameter glass beads and vortexed for 5 min. After vortexing the tube was allowed to stand for 5 min to allow large mycelial clumps to settle and then the top layer containing hyphal fragments was removed and used as inocula for growth inhibition assays. Fungicides and adjuvants were dissolved in methanol and added to molten PDA (˜50° C.) and then the agar was distributed in the wells of 12 well multiwell plates (1 mL/well). The plates were cooled to room temperature and 10 μL of hyphal inoculum was added to the centre of each well. The plates were incubated at 22° C. for 48 hours and then the colony diameter was measured using a digital caliper. The biological growth control consisted of hyphae and vehicle (0.07% methanol), the negative control was media and vehicle (0.07% methanol). To expand the functional characterisation of the lamellicolic anhydride adjuvant (Ia) was tested in combination with seven fungicides belonging to six different fungicide groups as classified by the Fungicide Resistance Action Committee (FRAC Code List 2018). Numbers indicate fold change improvement in fungal growth inhibition relative to the fungal test organisms treated with fungicide and adjuvant vehicle alone. n.t. indicates not tested.

[7] = tested on: Cladosporium sp.; experiment: Adjuvancy with other fungicides for other fungus, FT6; format: cell-based; conditions: Ia 4 μg/mL + pyrimethanil 0.006 μg/mL
Experimental: as §1, §2, §3, §4, §5

[8] = Ia 4 μg/mL + iprodione 0.0015 μg/mL
[9] = Ia 4 μg/mL + mancozeb 0.2 μg/mL
[10] = Ia 4 μg/mL + pyraclostrobin 0.001 μg/mL

Cc1cc(O)c2c3c(c(O)cc(O)c13)C(=O)OC2=O [Lam 261 (Ia), Lamellicolic anhydride]
fold change improvement in fungal growth inhibition [1]: 1.63 | fold change improvement in fungal growth inhibition ([2]; Ia 4 μg/mL + dimethomorph 12.8 μg/mL): 1.27 | fold change improvement in fungal growth inhibition [2, 8]: 1.72 | fold change improvement in fungal growth inhibition [2, 9]: 2.01 | fold change improvement in fungal growth inhibition ([2]; Ia 4 μg/mL + prothioconazole 0.012 μg/mL): 1.28 | fold change improvement in fungal growth inhibition ([3]; Ia 4 μg/mL + dimethomorph 0.2 μg/mL): 1.25 | fold change improvement in fungal growth inhibition ([3]; Ia 4 μg/mL + mancozeb 0.1 μg/mL): 2.45 | fold change improvement in fungal growth inhibition ([3]; Ia 4 μg/mL + prothioconazole 0.006 μg/mL): 1.50 | fold change improvement in fungal growth inhibition [3, 10]: 1.18 | fold change improvement in fungal growth inhibition [4]: 1.63 | fold change improvement in fungal growth inhibition ([5]; Ia 4 μg/mL + captan 0.04 μg/mL): 1.17 | fold change improvement in fungal growth inhibition ([5]; Ia 4 μg/mL + dimethomorph 0.8 μg/mL): 1.85 | fold change improvement in fungal growth inhibition [5, 8]: 1.65 | fold change improvement in fungal growth inhibition [5, 9]: 1.63 | fold change improvement in fungal growth inhibition ([5]; Ia 4 μg/mL + prothioconazole 0.00375 μg/mL): 1.52 | fold change improvement in fungal growth inhibition [5, 10]: 1.27 | fold change improvement in fungal growth inhibition ([5]; Ia 4 μg/mL + pyrimethanil 0.02 μg/mL): 1.31 | Fold Change in Growth Inhibition ([6]; Lam 261 (Ia) 1 μg/mL + benomyl 0.0015 μg/mL): 16.45 | Fold Change in Growth Inhibition ([6]; Lam 261 (Ia) 1 μg/mL + captan 0.008 μg/mL): 17.25 | Fold Change in Growth Inhibition ([6]; Lam 261 (Ia) 1 μg/mL + captan 0.04 μg/mL): 27.32 | Fold Change in Growth Inhibition ([6]; Lam 261 (Ia) 1 μg/mL + dimethomorph 0.8 μg/mL): 17.72 | Fold Change in Growth Inhibition ([6]; Lam 261 (Ia) 1 μg/mL + mancozeb 0.1 μg/mL): 1.89 | Fold Change in Growth Inhibition ([6]; Lam 261 (Ia) 1 μg/mL + mancozeb 0.2 μg/mL): 2.44 | Fold Change in Growth Inhibition ([6]; Lam 261 (Ia) 1 μg/mL + metalaxyl 0.8 μg/mL): 31.72 | Fold Change in Growth Inhibition ([6]; Lam 261 (Ia) 1 μg/mL + metalaxyl 1.6 μg/mL): 27.22 | Fold Change in Growth Inhibition ([6]; Lam 261 (Ia) 1 μg/mL + prothioconazole 1.0 μg/mL): 5.53 | Fold Change in Growth Inhibition ([6]; Lam 261 (Ia) 1 μg/mL + tebuconazole 0.00018 μg/mL): 15.13 | Fold Change in Growth Inhibition ([6]; Lam 261 (Ia) 1 μg/mL + tebuconazole 0.00075 μg/mL): 9.37 | Fold Change in Growth Inhibition ([6]; Lam 261 (Ia) 1 μg/mL, benomyl 0 μg/mL (adjuvant alone)): 1.00 | Fold Change in Growth Inhibition ([6]; Lam 261 (Ia) 1 μg/mL, captan 0 μg/mL (adjuvant alone)): 1.00 | Fold Change in Growth Inhibition ([6]; Lam 261 (Ia) 1 μg/mL, dimethomorph 0 μg/mL (adjuvant alone)): 1.00 | Fold Change in Growth Inhibition ([6]; Lam 261 (Ia) 1 μg/mL, mancozeb 0 μg/mL (adjuvant alone)): 1.00 | Fold Change in Growth Inhibition ([6]; Lam 261 (Ia) 1 μg/mL, metalaxyl 0 μg/mL (adjuvant alone)): 1.00 | Fold Change in Growth Inhibition ([6]; Lam 261 (Ia) 1 μg/mL, prothioconazole 0 μg/mL (adjuvant alone)): 1.00 | Fold Change in Growth Inhibition ([6]; Lam 261 (Ia) 1 μg/mL, tebuconazole 0 μg/mL (adjuvant alone)): 1.00 | Fold Change in Growth Inhibition ([6]; Lam 261 (Ia) 2 μg/mL + benomyl 0.0015 μg/mL): 20.43 | Fold Change in Growth Inhibition ([6]; Lam 261 (Ia) 2 μg/mL + captan 0.008 μg/mL): 32.35 | Fold Change in Growth Inhibition ([6]; Lam 261 (Ia) 2 μg/mL + captan 0.04 μg/mL): 30.95 | Fold Change in Growth Inhibition ([6]; Lam 261 (Ia) 2 μg/mL + dimethomorph 0.4 μg/mL): 31.0 | Fold Change in Growth Inhibition ([6]; Lam 261 (Ia) 2 μg/mL + dimethomorph 0.8 μg/mL): 16.06 | Fold Change in Growth Inhibition ([6]; Lam 261 (Ia) 2 μg/mL + mancozeb 0.1 μg/mL): 3.06 | Fold Change in Growth Inhibition ([6]; Lam 261 (Ia) 2 μg/mL + mancozeb 0.2 μg/mL): 2.83 | Fold Change in Growth Inhibition ([6]; Lam 261 (Ia) 2 μg/mL + metalaxyl 0.8 μg/mL): 45.13 | Fold Change in Growth Inhibition ([6]; Lam 261 (Ia) 2 μg/mL + metalaxyl 1.6 μg/mL): 32.46 | Fold Change in Growth Inhibition ([6]; Lam 261 (Ia) 2 μg/mL + prothioconazole 1.0 μg/mL): 26.91 | Fold Change in Growth Inhibition ([6]; Lam 261 (Ia) 2 μg/mL + tebuconazole 0.00018 μg/mL): 21.61 | Fold Change in Growth Inhibition ([6]; Lam 261 (Ia) 2 μg/mL + tebuconazole 0.00075 μg/mL): 9.79 | Fold Change in Growth Inhibition ([6]; Lam 261 (Ia) 2 μg/mL, benomyl 0 μg/mL (adjuvant alone)): 1.00 | Fold Change in Growth Inhibition ([6]; Lam 261 (Ia) 2 μg/mL, captan 0 μg/mL (adjuvant alone)): 1.00 | Fold Change in Growth Inhibition ([6]; Lam 261 (Ia) 2 μg/mL, dimethomorph 0 μg/mL (adjuvant alone)): 1.00 | Fold Change in Growth Inhibition ([6]; Lam 261 (Ia) 2 μg/mL, mancozeb 0 μg/mL (adjuvant alone)): 1.00 | Fold Change in Growth Inhibition ([6]; Lam 261 (Ia) 2 μg/mL, metalaxyl 0 μg/mL (adjuvant alone)): 1.00 | Fold Change in Growth Inhibition ([6]; Lam 261 (Ia) 2 μg/mL, prothioconazole 0 μg/mL (adjuvant alone)): 1.00 | Fold Change in Growth Inhibition ([6]; Lam 261 (Ia) 2 μg/mL, tebuconazole 0 μg/mL (adjuvant alone)): 1.00 | fold change improvement in fungal growth inhibition [7]: 1.67

From patent US20230120044A1, “AGROCHEMICAL ADJUVANTS” (Croda International Plc, priority 2020, published 2023)
